Results taken from ChEMBL document CHEMBL3045485, “Synthesis of combretastatin analogs: evaluation of in vitro anticancer activity and molecular docking studies” (Med Chem Res, 2012).

Columns and labels:
[1] = system: SF-295; assay: Cytotoxicity against Homo sapiens (human) SF295 cells assessed as growth inhibition at 1 x 10^-4 mole after 48 hr by SRB assay; type: functional
[2] = system: IGROV-1; assay: Cytotoxicity against Homo sapiens (human) IGROV1 cells assessed as growth inhibition at 5 x 10^-5 mole after 48 hr by SRB assay; type: functional
[3] = system: IGROV-1; assay: Cytotoxicity against Homo sapiens (human) IGROV1 cells assessed as growth inhibition at 1 x 10^-4 mole after 48 hr by SRB assay; type: functional
[4] = system: PC-3; assay: Cytotoxicity against Homo sapiens (human) PC3 cells assessed as growth inhibition at 1 x 10^-4 mole after 48 hr by SRB assay; type: functional
[5] = system: PC-3; assay: Cytotoxicity against Homo sapiens (human) PC3 cells assessed as growth inhibition at 5 x 10^-5 mole after 48 hr by SRB assay; type: functional
[6] = system: MCF7; assay: Cytotoxicity against Homo sapiens (human) MCF-7 cells assessed as growth inhibition at 1 x 10^-4 mole after 48 hr by SRB assay; type: functional
[7] = system: MCF7; assay: Cytotoxicity against Homo sapiens (human) MCF-7 cells assessed as growth inhibition at 5 x 10^-5 mole after 48 hr by SRB assay; type: functional
[8] = system: A549; assay: Cytotoxicity against Homo sapiens (human) A549 cells assessed as growth inhibition at 1 x 10^-4 mole after 48 hr by SRB assay; type: functional
[9] = system: A549; assay: Cytotoxicity against Homo sapiens (human) A549 cells assessed as growth inhibition at 5 x 10^-5 mole after 48 hr by SRB assay; type: functional
[10] = system: SF-295; assay: Cytotoxicity against Homo sapiens (human) SF295 cells assessed as growth inhibition at 5 x 10^-5 mole after 48 hr by SRB assay; type: functional
[11] = system: COLO 205; assay: Cytotoxicity against Homo sapiens (human) COLO205 cells after 48 hr by SRB assay; type: functional, cell-based; conditions: COLO 205, 48 h, pooled result: one value given for 7 cell lines, strains, targets or settings
[12] = system: THP-1; assay: Cytotoxicity against Homo sapiens (human) THP1 cells assessed as growth inhibition at 1 x 10^-4 mole after 48 hr by SRB assay; type: functional
[13] = system: THP-1; assay: Cytotoxicity against Homo sapiens (human) THP1 cells assessed as growth inhibition at 5 x 10^-5 mole after 48 hr by SRB assay; type: functional
[14] = system: COLO 205; assay: Cytotoxicity against Homo sapiens (human) COLO205 cells assessed as growth inhibition at 1 x 10^-4 mole after 48 hr by SRB assay; type: functional
[15] = system: COLO 205; assay: Cytotoxicity against Homo sapiens (human) COLO205 cells assessed as growth inhibition at 5 x 10^-5 mole after 48 hr by SRB assay; type: functional
[16] = system: SF-295; assay: Cytotoxicity against Homo sapiens (human) SF295 cells assessed as growth inhibition at 1 x 10^-6 mole after 48 hr by SRB assay; type: functional
[17] = system: MCF7; assay: Cytotoxicity against Homo sapiens (human) MCF-7 cells assessed as growth inhibition at 1 x 10^-6 mole after 48 hr by SRB assay; type: functional
[18] = system: THP-1; assay: Cytotoxicity against Homo sapiens (human) THP1 cells assessed as growth inhibition at 2 x 10^-5 mole after 48 hr by SRB assay; type: functional
[19] = system: COLO 205; assay: Cytotoxicity against Homo sapiens (human) COLO205 cells assessed as growth inhibition at 2 x 10^-5 mole after 48 hr by SRB assay; type: functional
[20] = system: PC-3; assay: Cytotoxicity against Homo sapiens (human) PC3 cells assessed as growth inhibition at 1 x 10^-5 mole after 48 hr by SRB assay; type: functional
[21] = system: MCF7; assay: Cytotoxicity against Homo sapiens (human) MCF-7 cells assessed as growth inhibition at 1 x 10^-5 mole after 48 hr by SRB assay; type: functional
[22] = system: IGROV-1; assay: Cytotoxicity against Homo sapiens (human) IGROV1 cells assessed as growth inhibition at 1 x 10^-5 mole after 48 hr by SRB assay; type: functional
[23] = system: A549; assay: Cytotoxicity against Homo sapiens (human) A549 cells assessed as growth inhibition at 1 x 10^-5 mole after 48 hr by SRB assay; type: functional

Compound	growth inhibition (GI) [2] [%]	growth inhibition (GI) [3] [%]	growth inhibition (GI) [4] [%]	growth inhibition (GI) [5] [%]	growth inhibition (GI) [6] [%]	growth inhibition (GI) [7] [%]	growth inhibition (GI) [8] [%]	growth inhibition (GI) [9] [%]	IC50 [11] [µM]	growth inhibition (GI) [12] [%]	growth inhibition (GI) [13] [%]	growth inhibition (GI) [14] [%]	growth inhibition (GI) [15] [%]	other results
O=C(O)/C(=C\c1ccccc1)c1ccccc1	0	0	4	0	41	29	54	52	85.4	–	–	–	–	growth inhibition (GI) [1]: 25%; growth inhibition (GI) [10]: 14%
O=C(O)/C(=C\c1cccc(O)c1O)c1ccccc1	15	31	74	31	26	14	52	52	96.5	–	–	–	–	–
O=C(O)/C(=C\c1ccc(Cl)cc1)c1ccccc1	0	0	42	14	22	10	61	61	34	–	–	–	–	–
CC(=O)Oc1ccccc1/C=C(\C(=O)O)c1ccccc1	6	18	60	53	20	6	10	10	–	–	–	–	–	–
O=C(O)/C(=C\c1cccc(Cl)c1)c1ccccc1	0	38	68	30	0	0	32	32	–	–	–	–	–	–
O=C(O)/C(=C\c1ccccc1Cl)c1ccccc1	32	42	52	36	10	5	12	12	–	–	–	–	–	–
O=C(O)/C(=C\c1cccc2ccccc12)c1ccccc1	–	–	35	26	–	–	0	0	> 100	22	0	70	51	–
COc1ccc(OC)c(/C=C(\C(=O)O)c2ccccc2)c1	–	–	0	0	–	–	10	0	–	4	0	0	0	–
COc1ccc(/C=C(\C(=O)O)c2ccccc2)c(OC)c1OC	–	–	7	0	–	–	0	0	–	0	0	0	0	–
O=C(O)/C(=C\c1ccccc1[N+](=O)[O-])c1ccccc1	–	–	22	10	–	–	25	15	–	0	0	60	32	–
O=C(O)/C(=C\C=C\c1ccccc1)c1ccccc1	–	–	9	0	–	–	43	10	–	35	8	44	15	–
COc1cc(OC)c(OC)cc1/C=C(\C(=O)O)c1ccccc1	–	–	28	4	–	–	20	0	–	21	0	16	5	–
COc1ccc(/C=C(\C(=O)O)c2ccccc2)cc1O	8	17	23	12	24	14	20	0	–	–	–	–	–	growth inhibition (GI) [1]: 12%; growth inhibition (GI) [10]: 0%
O=C(O)/C(=C\c1ccc2c(c1)OCO2)c1ccccc1	0	32	39	11	39	32	45	0	–	–	–	–	–	growth inhibition (GI) [1]: 38%; growth inhibition (GI) [10]: 15%
COc1cc(/C=C(\C(=O)O)c2ccccc2)cc(OC)c1OC	0	1	22	10	63	54	65	21	88	–	–	–	–	growth inhibition (GI) [1]: 25%; growth inhibition (GI) [10]: 13%
COc1cccc(/C=C(\C(=O)O)c2ccccc2)c1OC	6	11	4	2	52	25	89	60	3.9	–	–	–	–	growth inhibition (GI) [1]: 24%; growth inhibition (GI) [10]: 8%
COc1cccc2c1C(=O)c1c(O)c3c(c(O)c1C2=O)C[C@@](O)(C(=O)CO)C[C@@H]3O[C@H]1C[C@H](N)[C@H](O)[C@H](C)O1.Cl [DOXORUBICIN HYDROCHLORIDE]	–	–	–	–	–	–	–	–	–	–	–	–	–	growth inhibition (GI) [16]: 87%; growth inhibition (GI) [17]: 77%
O=c1[nH]cc(F)c(=O)[nH]1 [FLUOROURACIL]	–	–	–	–	–	–	–	–	–	–	–	–	–	growth inhibition (GI) [18]: 69%; growth inhibition (GI) [19]: 74%
CO[C@@]12[C@H](COC(N)=O)C3=C(C(=O)C(C)=C(N)C3=O)N1C[C@@H]1N[C@@H]12 [MITOMYCIN]	–	–	–	–	–	–	–	–	–	–	–	–	–	growth inhibition (GI) [20]: 58%; growth inhibition (GI) [21]: 65%
CC(=O)O[C@H]1C(=O)[C@@]2(C)[C@H]([C@H](OC(=O)c3ccccc3)[C@]3(O)C[C@H](OC(=O)[C@H](O)[C@@H](NC(=O)c4ccccc4)c4ccccc4)C(C)=C1C3(C)C)[C@]1(OC(C)=O)CO[C@@H]1C[C@@H]2O [PACLITAXEL]	–	–	–	–	–	–	–	–	–	–	–	–	–	growth inhibition (GI) [22]: 66%; growth inhibition (GI) [23]: 67%
